{
  "source": "paper PMC7206119",
  "about": "“RIP1 inhibition blocks inflammatory diseases but not tumor growth or metastases” (Cell Death and Differentiation, 2019)",
  "assay_in_all_cases": "biochemical",
  "parameters_in_all_cases": "DiscoverX kinase panel, active-site competition binding (KINOMEscan type), percent of control at one concentration",
  "settings_in_all_cases": "competition binding, percent of control",
  "key": {"ROS1": {"biological_target": "ROS1 (Homo sapiens, UniProt P08922)"}, "TBK1": {"biological_target": "TBK1 (Homo sapiens, UniProt Q9UHD2)", "sequence (Q9UHD2 whole entry)": "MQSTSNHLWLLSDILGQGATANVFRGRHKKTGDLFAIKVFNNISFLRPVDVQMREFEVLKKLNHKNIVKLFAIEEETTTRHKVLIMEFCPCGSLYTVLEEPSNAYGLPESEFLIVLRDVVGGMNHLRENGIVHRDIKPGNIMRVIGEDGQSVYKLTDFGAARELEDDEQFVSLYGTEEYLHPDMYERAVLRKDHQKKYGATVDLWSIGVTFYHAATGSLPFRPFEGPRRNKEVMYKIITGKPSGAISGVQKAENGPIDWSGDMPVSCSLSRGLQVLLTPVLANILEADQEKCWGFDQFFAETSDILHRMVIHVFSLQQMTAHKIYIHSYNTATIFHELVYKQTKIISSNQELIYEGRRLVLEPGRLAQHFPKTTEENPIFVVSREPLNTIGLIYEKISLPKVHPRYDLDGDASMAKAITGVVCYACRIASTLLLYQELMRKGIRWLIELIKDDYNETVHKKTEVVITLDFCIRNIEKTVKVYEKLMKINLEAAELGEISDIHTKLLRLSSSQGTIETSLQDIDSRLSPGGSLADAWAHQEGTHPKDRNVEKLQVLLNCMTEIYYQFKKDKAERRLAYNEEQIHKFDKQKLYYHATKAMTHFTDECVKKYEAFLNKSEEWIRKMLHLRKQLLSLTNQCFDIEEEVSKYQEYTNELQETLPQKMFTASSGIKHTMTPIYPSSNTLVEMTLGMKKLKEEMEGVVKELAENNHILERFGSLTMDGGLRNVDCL"}, "MERTK": {"biological_target": "MERTK (Homo sapiens, UniProt Q12866)"}, "TIE2": {"biological_target": "T1, TIE2 (Homo sapiens, UniProt Q02763)", "T1 construct": "gene TEK"}, "MAP4K4": {"biological_target": "MAP4K4 (Homo sapiens, UniProt O95819)"}, "DCAMKL1": {"biological_target": "T2, DCAMKL1 (Homo sapiens, UniProt O15075)", "T2 construct": "gene DCLK1"}, "BMPR1A": {"biological_target": "BMPR1A (Homo sapiens, UniProt P36894)"}, "[1]": {"biological_target": "T3, RSK4(Kin.Dom.2-C-terminal) (Homo sapiens, UniProt Q9UK32)", "T3 construct": "gene RPS6KA6; Kin.Dom.2-C-terminal"}, "PRKD1": {"biological_target": "PRKD1 (Homo sapiens, UniProt Q15139)"}, "PIM2": {"biological_target": "PIM2 (Homo sapiens, UniProt Q9P1W9)", "sequence (Q9P1W9 whole entry)": "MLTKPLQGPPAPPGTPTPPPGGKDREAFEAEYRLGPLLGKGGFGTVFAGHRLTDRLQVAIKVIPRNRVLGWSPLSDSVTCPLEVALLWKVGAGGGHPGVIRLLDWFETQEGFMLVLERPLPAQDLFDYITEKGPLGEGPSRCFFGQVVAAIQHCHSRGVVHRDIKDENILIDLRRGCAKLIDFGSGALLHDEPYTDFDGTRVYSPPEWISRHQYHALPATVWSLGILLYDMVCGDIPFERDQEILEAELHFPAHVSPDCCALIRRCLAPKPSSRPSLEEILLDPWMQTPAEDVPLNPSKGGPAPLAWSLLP"}, "HUNK": {"biological_target": "HUNK (Homo sapiens, UniProt P57058)", "sequence (P57058 whole entry)": "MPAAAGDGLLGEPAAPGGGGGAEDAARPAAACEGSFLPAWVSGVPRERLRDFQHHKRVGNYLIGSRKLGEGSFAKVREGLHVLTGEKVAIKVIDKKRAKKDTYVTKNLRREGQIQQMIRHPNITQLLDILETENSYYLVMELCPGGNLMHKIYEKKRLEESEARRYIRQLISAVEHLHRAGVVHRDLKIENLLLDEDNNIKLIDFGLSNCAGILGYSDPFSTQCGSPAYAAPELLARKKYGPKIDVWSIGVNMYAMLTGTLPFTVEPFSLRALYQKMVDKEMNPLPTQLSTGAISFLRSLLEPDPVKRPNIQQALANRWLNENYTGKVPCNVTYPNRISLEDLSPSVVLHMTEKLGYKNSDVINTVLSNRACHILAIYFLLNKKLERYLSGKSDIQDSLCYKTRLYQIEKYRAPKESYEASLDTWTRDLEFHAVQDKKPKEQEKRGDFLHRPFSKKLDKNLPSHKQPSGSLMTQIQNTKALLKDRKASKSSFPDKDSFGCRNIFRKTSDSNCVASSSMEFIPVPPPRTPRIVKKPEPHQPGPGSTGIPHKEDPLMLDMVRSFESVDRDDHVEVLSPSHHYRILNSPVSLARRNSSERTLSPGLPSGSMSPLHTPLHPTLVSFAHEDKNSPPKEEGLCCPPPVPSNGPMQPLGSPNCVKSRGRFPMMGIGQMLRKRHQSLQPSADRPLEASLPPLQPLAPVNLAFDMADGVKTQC"}, "CASK": {"biological_target": "CASK (Homo sapiens, UniProt O14936)", "sequence (O14936 whole entry)": "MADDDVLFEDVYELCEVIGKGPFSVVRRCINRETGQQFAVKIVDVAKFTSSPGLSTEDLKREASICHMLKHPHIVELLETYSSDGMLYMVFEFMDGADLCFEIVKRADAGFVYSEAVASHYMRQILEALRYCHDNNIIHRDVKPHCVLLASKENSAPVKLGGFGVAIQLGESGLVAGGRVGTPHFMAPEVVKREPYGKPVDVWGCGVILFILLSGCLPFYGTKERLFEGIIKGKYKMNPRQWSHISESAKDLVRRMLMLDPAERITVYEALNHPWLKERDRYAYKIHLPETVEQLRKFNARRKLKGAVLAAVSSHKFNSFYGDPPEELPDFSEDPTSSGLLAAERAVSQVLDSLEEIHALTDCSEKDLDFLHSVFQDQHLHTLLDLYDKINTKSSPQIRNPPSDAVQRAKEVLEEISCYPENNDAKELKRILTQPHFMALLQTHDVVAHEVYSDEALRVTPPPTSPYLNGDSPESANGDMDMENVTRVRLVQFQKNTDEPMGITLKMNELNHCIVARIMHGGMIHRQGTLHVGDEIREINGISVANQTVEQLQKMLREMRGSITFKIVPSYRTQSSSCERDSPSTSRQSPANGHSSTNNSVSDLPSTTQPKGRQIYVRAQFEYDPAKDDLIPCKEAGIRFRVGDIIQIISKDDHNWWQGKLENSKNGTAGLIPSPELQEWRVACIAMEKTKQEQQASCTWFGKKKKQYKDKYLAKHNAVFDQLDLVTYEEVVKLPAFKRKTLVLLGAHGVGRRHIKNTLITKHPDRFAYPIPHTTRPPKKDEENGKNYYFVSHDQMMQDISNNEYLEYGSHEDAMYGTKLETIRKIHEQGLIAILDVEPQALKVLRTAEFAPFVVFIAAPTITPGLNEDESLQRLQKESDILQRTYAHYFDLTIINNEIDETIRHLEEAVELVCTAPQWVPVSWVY"}, "MAP3K15": {"biological_target": "MAP3K15 (Homo sapiens, UniProt Q6ZN16)", "sequence (Q6ZN16 whole entry)": "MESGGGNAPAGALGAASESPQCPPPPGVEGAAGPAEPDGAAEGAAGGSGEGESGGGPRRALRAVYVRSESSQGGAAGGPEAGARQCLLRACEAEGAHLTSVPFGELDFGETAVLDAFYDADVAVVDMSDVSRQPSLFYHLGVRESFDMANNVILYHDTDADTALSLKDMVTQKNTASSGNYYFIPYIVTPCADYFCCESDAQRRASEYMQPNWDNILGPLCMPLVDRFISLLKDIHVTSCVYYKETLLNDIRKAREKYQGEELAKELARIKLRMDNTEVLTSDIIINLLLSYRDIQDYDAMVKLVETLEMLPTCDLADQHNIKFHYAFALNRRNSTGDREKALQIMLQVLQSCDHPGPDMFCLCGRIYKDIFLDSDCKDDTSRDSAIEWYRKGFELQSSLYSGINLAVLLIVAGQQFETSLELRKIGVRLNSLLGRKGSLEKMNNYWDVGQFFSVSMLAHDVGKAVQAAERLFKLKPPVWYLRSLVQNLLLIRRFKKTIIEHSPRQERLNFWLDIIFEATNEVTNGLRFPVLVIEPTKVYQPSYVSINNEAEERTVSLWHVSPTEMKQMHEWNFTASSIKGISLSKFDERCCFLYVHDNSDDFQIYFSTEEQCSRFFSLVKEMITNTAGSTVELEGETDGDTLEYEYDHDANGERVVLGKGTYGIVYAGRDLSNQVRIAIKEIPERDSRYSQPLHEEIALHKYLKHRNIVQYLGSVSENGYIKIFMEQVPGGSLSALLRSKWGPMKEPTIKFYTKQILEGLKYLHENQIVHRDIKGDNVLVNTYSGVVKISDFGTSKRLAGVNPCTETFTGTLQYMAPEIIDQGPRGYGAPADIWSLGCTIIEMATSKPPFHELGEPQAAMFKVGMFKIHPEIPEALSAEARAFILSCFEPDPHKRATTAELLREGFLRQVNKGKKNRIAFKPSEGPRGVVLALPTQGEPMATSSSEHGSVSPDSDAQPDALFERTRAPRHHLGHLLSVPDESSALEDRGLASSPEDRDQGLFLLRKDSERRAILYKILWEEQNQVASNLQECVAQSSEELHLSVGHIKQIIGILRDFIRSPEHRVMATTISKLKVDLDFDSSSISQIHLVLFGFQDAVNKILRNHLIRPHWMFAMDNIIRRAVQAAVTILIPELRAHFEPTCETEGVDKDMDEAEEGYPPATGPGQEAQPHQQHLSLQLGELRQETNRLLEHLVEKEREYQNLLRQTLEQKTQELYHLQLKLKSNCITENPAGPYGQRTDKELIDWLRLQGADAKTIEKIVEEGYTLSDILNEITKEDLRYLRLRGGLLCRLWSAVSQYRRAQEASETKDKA"}, "TNK2": {"biological_target": "TNK2 (Homo sapiens, UniProt Q07912)"}, "NEK9": {"biological_target": "NEK9 (Homo sapiens, UniProt Q8TD19)", "sequence (Q8TD19 whole entry)": "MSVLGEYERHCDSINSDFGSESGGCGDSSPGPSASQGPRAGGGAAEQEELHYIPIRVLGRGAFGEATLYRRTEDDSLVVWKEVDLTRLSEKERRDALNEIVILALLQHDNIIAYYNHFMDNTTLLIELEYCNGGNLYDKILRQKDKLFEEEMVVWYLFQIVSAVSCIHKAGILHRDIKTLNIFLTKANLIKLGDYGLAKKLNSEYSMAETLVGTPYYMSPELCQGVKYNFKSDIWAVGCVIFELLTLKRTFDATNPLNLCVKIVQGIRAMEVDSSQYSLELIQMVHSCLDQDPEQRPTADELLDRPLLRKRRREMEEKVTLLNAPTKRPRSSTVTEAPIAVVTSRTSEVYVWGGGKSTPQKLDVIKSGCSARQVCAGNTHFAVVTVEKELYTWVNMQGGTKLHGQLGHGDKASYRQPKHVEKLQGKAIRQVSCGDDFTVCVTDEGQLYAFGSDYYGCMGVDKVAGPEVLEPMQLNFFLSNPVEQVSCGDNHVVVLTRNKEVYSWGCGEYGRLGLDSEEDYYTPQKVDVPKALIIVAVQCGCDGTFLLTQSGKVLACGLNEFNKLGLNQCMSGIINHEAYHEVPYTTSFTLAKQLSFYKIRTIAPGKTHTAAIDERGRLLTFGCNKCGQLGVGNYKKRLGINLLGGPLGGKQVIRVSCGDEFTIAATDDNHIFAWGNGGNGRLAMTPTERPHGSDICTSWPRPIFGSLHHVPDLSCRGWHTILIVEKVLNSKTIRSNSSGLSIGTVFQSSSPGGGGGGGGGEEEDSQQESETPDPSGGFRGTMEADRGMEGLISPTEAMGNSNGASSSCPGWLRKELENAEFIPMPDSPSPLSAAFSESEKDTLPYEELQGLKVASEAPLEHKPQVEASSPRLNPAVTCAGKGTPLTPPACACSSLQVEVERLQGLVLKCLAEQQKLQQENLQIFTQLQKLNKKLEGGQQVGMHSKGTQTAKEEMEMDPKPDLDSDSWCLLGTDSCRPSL"}, "DCAMKL2": {"biological_target": "T4, DCAMKL2 (Homo sapiens, UniProt Q8N568)", "T4 construct": "gene DCLK2"}, "PFTAIRE2": {"biological_target": "T5, PFTAIRE2 (Homo sapiens, UniProt Q96Q40)", "T5 construct": "gene CDK15"}, "NEK11": {"biological_target": "NEK11 (Homo sapiens, UniProt Q8NG66)"}, "PKAC-beta": {"biological_target": "T6, PKAC-beta (Homo sapiens, UniProt P22694)", "T6 construct": "gene PRKACB"}, "[2]": {"biological_target": "T7, ABL1(H396P)-nonphosphorylated (Homo sapiens, UniProt P00519, H396P)", "T7 construct": "nonphosphorylated"}, "ICK": {"biological_target": "T8, ICK (Homo sapiens, UniProt Q9UPZ9)", "T8 construct": "gene CILK1"}},
  "data": [
    {"smiles": "COc1cc2c(cn1)N(C)C(=O)[C@@H](NC(=O)c1nc3n(n1)[C@H](c1ccccc1)CC3)CC2", "note": "[GNE684, (S)-N-((S)-7-methoxy-1-methyl-2-oxo-2,3,4,5-tetrahydro-1H-pyrido[3,4-b]azepin-3-yl)-5-phenyl-6,7-dihydro-5H-pyrrolo[1,2-b][1,2,4]triazole-2-carboxamide]", "values": [
      {"measurement": "remaining binding at 10 µM", "setting": "ROS1", "value": 96, "unit": "%"},
      {"measurement": "remaining binding at 10 µM", "setting": "TBK1", "value": 94, "unit": "%"},
      {"measurement": "remaining binding at 10 µM", "setting": "MERTK", "value": 90, "unit": "%"},
      {"measurement": "remaining binding at 10 µM", "setting": "TIE2", "value": 92, "unit": "%"},
      {"measurement": "remaining binding at 10 µM", "setting": "MAP4K4", "value": 73, "unit": "%"},
      {"measurement": "remaining binding at 10 µM", "setting": "DCAMKL1", "value": 67, "unit": "%"},
      {"measurement": "remaining binding at 10 µM", "setting": "BMPR1A", "value": 91, "unit": "%"},
      {"measurement": "remaining binding at 10 µM", "setting": "[1]", "value": 95, "unit": "%"},
      {"measurement": "remaining binding at 10 µM", "setting": "PRKD1", "value": 100, "unit": "%"},
      {"measurement": "remaining binding at 10 µM", "setting": "PIM2", "value": 71, "unit": "%"},
      {"measurement": "remaining binding at 10 µM", "setting": "HUNK", "value": 94, "unit": "%"},
      {"measurement": "remaining binding at 10 µM", "setting": "CASK", "value": 72, "unit": "%"},
      {"measurement": "remaining binding at 10 µM", "setting": "MAP3K15", "value": 94, "unit": "%"},
      {"measurement": "remaining binding at 10 µM", "setting": "TNK2", "value": 100, "unit": "%"},
      {"measurement": "remaining binding at 10 µM", "setting": "NEK9", "value": 99, "unit": "%"},
      {"measurement": "remaining binding at 10 µM", "setting": "DCAMKL2", "value": 95, "unit": "%"},
      {"measurement": "remaining binding at 10 µM", "setting": "PFTAIRE2", "value": 100, "unit": "%"},
      {"measurement": "remaining binding at 10 µM", "setting": "NEK11", "value": 100, "unit": "%"},
      {"measurement": "remaining binding at 10 µM", "setting": "PKAC-beta", "value": 72, "unit": "%"},
      {"measurement": "remaining binding at 10 µM", "setting": "[2]", "value": 69, "unit": "%"},
      {"measurement": "remaining binding at 10 µM", "setting": "ICK", "value": 93, "unit": "%"}
    ]}
  ]
}
